Source: patent US20040126421A1, “Liposomal system and method of using same” (priority 2002, published 2004)

Test system: CD8+ T cells recognizing the ova peptide (SIINFEKL)
Experiment: IFN-g ELISPOT of lymph node CD8+ T cells after vaccination
Type: in vivo, C57BL/6 mice
Protocol: In order to test the potency of the Ubiquisome vaccine, the liposomes of example 1 were used as a vaccine. For vaccination, mice received a single administration of […] of liposomes containing 2.5 mg POPE and approximately […] peptide antigen. The vaccine was injected bilaterally in mouse tibealis anterior muscle ([…] per muscle).
For ELISPOT analysis, mice were sacrificed 5 days following vaccination and inguinal and popliteal lymph nodes were harvested. CD8+ T cells from lymph nodes were isolated using the MACS magnetic cell separation technique. 1×10^5 CD8+ T cells were plated per well in 96 well IP plates. Ova (SIINFEKL, Seq ID No. 3) or irrelevant peptide-pulsed EL4 lymphoma cells were irradiated and plated over CD8+ T cells at density of 10×10^4 cells/well. Following 20 h incubation and assay development, IFN-g secreting cells were visualized as brown spots on the IP membrane.

monophosphoryl Lipid A [MPL]
CD8+ T cell response with increasing amounts of MPL in the bilayer: proportionally stronger CD8+ T cell responses
